Experimental findings from publication PMC12195967, “Cobalt(II) Complexes of 4′–Nitro–Fenamic Acid: Characterization and Biological Evaluation” (Molecules, 2025) are described below.

Read-outs that look alike come from different tables or passages of the source.

For experiment [1], the system named is X. campestris, E. coli, B. subtilis and S. aureus. Briefly: Antibacterial activity, MIC summarised over the bacteria tested. The experiment is classed as cell-based. Conditions: read-out: MIC values against the bacteria tested. As for the experimental part:
buffer (50 mM, pH 7.4). The absorbance was measured at 230 nm after 10 min. The antioxidant activity (reduction of H2O2) of the compounds was expressed as the percentage decrease of the initial H2O2 solution (H2O2%). L−ascorbic acid (or vitamin C) was used as a […]
S2 Antibacterial Activity studies
The antibacterial activity of the compounds was evaluated by determining their respective MIC values towards two Gram–(–) (Escherichia coli XL1 (E. coli) and Xanthomonas campestris ATCC 1395 (X. campestris)) and two Gram–(+) (Staphylococcus aureus ATCC 29213 (S. aureus) and Bacillus subtilis ATCC 6633 (B. subtilis)) bacterial species. Cultures of these microbial strains were grown on a rich selective agar medium and stored at 4°C. The selective media used were Nutrient Agar or Broth for B. subtilis and S. aureus, Yeast Mold Agar or Broth for X. campestris and Luria Agar or Broth for E. coli. Cells picked from the surface of the stored cultures were used to initiate liquid pre–cultures of the same selective medium at an initial turbidity of roughly 1 McFarland unit.
Pre–cultures were incubated for 24 h in a rotary shaking incubator and subsequently […]
progressive double dilution.

The test system of experiment [2] is supercoiled circular pBR322 plasmid DNA. Briefly: Cleavage and photocleavage of plasmid DNA (gel electrophoresis). In kind it is biochemical. The note with it: compound 500 μM. As for the experimental part:
The cleavage of pBR322 plasmid DNA was evaluated both in the presence and absence of irradiation in order to further explore the interaction of the synthesized compounds with DNA and their possible biological efficacy. […] Following incubation of the samples at 37 °C, the impact of the compounds on pDNA was assessed using gel electrophoresis on 1% agarose gels stained with EB. Irradiation at 312 nm (UVB for 30 min), at 365 nm (UVA, for 120 min) or visible light (for 120 min) was also applied to further investigate the possibility of photocleavage activity of the compounds. […] The extent of pDNA damage from each compound was assessed by calculating the percentage of ss% and ds% using Equations (S4) and (S5).
S3.4 EB−displacement studies
The competition of the compounds with EB was investigated by fluorescence emission spectroscopy to examine whether the compounds can displace EB from its DNA−EB adduct. […] The solutions were excited at 540 nm and the emission was monitored from 550−700 nm with λmax = 592−594 nm and the effect of the addition of the compounds to the CT−DNA EB solution was recorded. […]
fluorescence emission bands at room temperature in solution or in the presence of CT DNA or EB under the same experimental conditions (λexcitation = 540 nm); therefore, the observed quenching of the EB−DNA solution may be attributed to the displacement of EB from its […]

Consider `O=C(O)c1ccccc1Nc1ccc([N+](=O)[O-])cc1` [4′–NO2–fenH, 4′–nitrofenamic acid], for which the minimum inhibitory concentration (MIC) in experiment [1] fell in the range of 48 to 97 µM; in experiment [1] (summary over the four strains), 12.5 to 25 µg/mL. In addition, the “total pDNA damage” value in experiment [2] (dark, 150 min) was determined as 57%.

`O=C([O-])c1ccccc1Nc1ccc([N+](=O)[O-])cc1.O=C([O-])c1ccccc1Nc1ccc([N+](=O)[O-])cc1.[Co+2].c1cnc2c(c1)ccc1cccnc12` [Complex 3, [Co(4′–NO2–fen)2(phen)]] came in with a pDNA damage in experiment [2] (UVB irradiation 312 nm, 30 min) of 89%.
